# Test results from patent publication US9856273B2, “ETP derivatives” (priority 2012, dated 2018).
# Entries after “also recorded” stand apart in the source; their conditions may differ.
# Key:
# [1] = test system: MDA-MB-231 triple negative breast cancer cells; test: Cell viability assay; assay type: cell-based
# [2] = test system: MDA-MB-468 triple negative breast cancer cells; test: Cell viability assay; assay type: cell-based
# G9a = G9a (Homo sapiens, UniProt Q96KQ7); test: Histone methyltransferase (HMT) assay in vitro; assay type: biochemical
# Method: (§1) For histone methyltranferase (HMT), DNA methyltransferase (DNMT) and Histone acetyltransferase (HAT) assays in vitro, human recombinant HMT, DNMT and HAT proteins were mixed with substrates in the reaction buffer (50 mM Tris-HCl (pH 8.5), 5 mM MgCl2, 50 mM NaCl, 1 mM DTT, 1 mM PMSF, 1% DMSO), including histone H3, histone H4, nucleosomes, or core histone. Racemic ETP69, S enantiomer or DMSO as a vehicle control was preincubated in the mixture. Next, for HMTs and DNMT assays, […] of ^3H-SAM was added to the mixture for the reaction initiation and conversion of ^3H-SAM+histone L-lysine to SAH+histone N^6-[methyl-^3H]-L-lysine was monitored with miniatured radioligand-filter binding platform. For p300 HAT assays, the conversion of acetyl-^3H-acetyl coenzyme A to coenzyme A was monitored. The reactions were carried out at 30° C. IC50 values were determined using Excel and GraphPad Prism software.
# SUV39H1 = SUV39H1 (Homo sapiens, UniProt O43463); test: Histone methyltransferase (HMT) assay in vitro; assay type: biochemical
# Method: as §1
# p16 tumor suppressor = test: Western blot, induction of p16; assay type: cell-based, human; details: DU145 prostate cancer cells and A2058 melanoma cells
# Method: Induction of p16, p53, p21waf1 and p27 (FIGS. 8 and 9): Western blot analyses were performed with specific antibodies. Briefly, human A2058 melanoma, DU145 prostate, A549 non-small lung and SKOV3 ovarian cancer cells were treated with ETP69. Whole-cell lysates (40 […]g) were resolved by SDS-PAGE. Primary specific antibodies to p53, p21^WAF1, p27(Kip1), p16 and Actin were diluted in PBS (pH 7.5) with 5% (w/v) nonfat milk and 0.1% (v/v) Tween-20 over night at 4° C. Horseradish peroxidase-conjugated secondary antibodies were incubated in PBS (pH 7.5) with 5% (w/v) nonfat milk and 0.1% (v/v) Tween-20 for 1 h at room temperature. Positive immuno-reactive proteins were detected using the ECL system (Pierce, Rockford, Ill.).
# [3] = test system: SKOV3 ovarian cancer cells; test: Annexin V-FITC apoptosis assay; assay type: cell-based, human; details: 48 h
# Method: Apoptosis Determinations (FIG. 11): Apoptosis assays of human SKOV3 ovarian cancer cells based on […] were carried out using Annexin V-FITC. Briefly, cells were seeded in 6-well plates, incubated overnight at 37° C. in 5% (v/v) CO2 and exposed to ETP69 in a dose-dependent manner for 48 h. DMSO was used as the vehicle control. Cells were analyzed using a FACScan flow cytometer to quantify fluorescence. Apoptotic cells were defined as Annexin V-FITC positive. Each experiment was performed in quadruplicate.
# SKOV3 xenografts = assay type: in vivo, mouse; details: SKOV3 xenograft, 2.5 mg/kg IP once daily for 18 days
# Method: Human SKOV3 cancer cells (4×10^6) were resuspended in serum-free McCoy's medium and Matrigel (ration of 1:1) and subcutaneously injected into the flank of 5-6 weeks old female NOD/SCID/IL-2rg(ko)(NSG). When palpable tumor sizes reached at approximately 50 mm^3, mice were divided into two groups (vehicle=9, treatment=9). Then, ETP69 was administered with IP injection at 2.5 mg/kg with vehicle (5% DMSO+15% Solutol+80% H2O), once daily for 18 days. Tumor volumes were calculated by the formula 1/2a×b^2, where a is the long diameter, and b is the short diameter. Tumor volumes correlate with tumor weights. The statistical significance of group differences was analyzed using a Student's t-test with the two-tailed distribution. P values less than 0.05 were considered statistically significant.
# [4] = test system: HepG2 hepatocellular carcinoma cells; test: MTS cell viability assay; assay type: cell-based; details: Homo sapiens
# [5] = test system: BxPC3 pancreatic cancer cell line; test: MTS assay; assay type: cell-based
# Method: (§2) MTS Assay: Panc1, BxPC3, or SU.86.86 cells were seeded in a 96-well plate at a density of 7500 cells/well prior to treatment with increasing amounts of ETP69 or DMSO vehicle control. Forty-eight hours post treatment cells were incubated with the MTS substrate (CellTiter 96 AQueous One Solution Cell Proliferation Assay, Promega, Madison, Wis.) according to the manufacturer's instructions. The absorbance was measured at 490 nm using a 96-well plate reader (Synergy 4, Biotek), and the data were normalized to the absorbance of DMSO-treated cells. IC50 values were determined using GraphPad Prism's non-linear regression function. See FIGS. 11, 21, 22A, 22B, 23, 24A, 24B, 24C, 25A and 25B.
# [6] = test system: Panc1 pancreatic cancer cell line; test: MTS assay; assay type: cell-based; details: Homo sapiens, PANC-1; Panc1, 48 h
# Method: as §2
# [7] = test system: Su.86.86 pancreatic cancer cell line; test: MTS assay; assay type: cell-based
# Method: as §2
# [8] = test system: Panc1 pancreatic cancer cells; test: Senescence assay (senescence-associated beta-galactosidase activity); assay type: cell-based; details: 5 days, compared to DMSO
# Method: Senescence Assay: Panc1 cells were seeded at a density of 3×10^4 cells per well in a 24-well plate. The cells were then treated with 100 nM ETP69 or 0.3% DMSO (vehicle control). Panc-1 and SU.86.86 cells expressing SUV39H1 shRNA or a non-targeting (NT) control shRNA were also seeded in 24-well plates at a density of 3×10^4 cells/well and 5×10^4 cells/well, respectively. After 5 days, cells were washed with PBS, fixed with 3% formaldehyde/PBS, and stained over night at 37° C. with a freshly prepared staining solution (1 mg/ml 5-bromo-4-chloro-3-indolyl b-D-galactoside in 40 mM citric acid/sodium phosphate, pH 6.0, 5 mM potassium ferrocyanide, 5 mM potassium ferricyanide, 150 mM NaCl, 2 mM MgCl2). The blue stain indicates senescence-associated β-galactosidase activity. Photographs were taken with a 100× or a 20× objective under brightfield illumination using an INFINITY2 digital CCD camera (Lumenera, Canada) mounted on a Nikon Eclipse TS100 inverted microscope.
# [9] = Toxicity on intraperitoneal injection or oral administration; details: up to 20 mg/kg, intraperitoneal injection (IP) or oral administration
# Sequence of SUV39H1 (O43463 whole entry): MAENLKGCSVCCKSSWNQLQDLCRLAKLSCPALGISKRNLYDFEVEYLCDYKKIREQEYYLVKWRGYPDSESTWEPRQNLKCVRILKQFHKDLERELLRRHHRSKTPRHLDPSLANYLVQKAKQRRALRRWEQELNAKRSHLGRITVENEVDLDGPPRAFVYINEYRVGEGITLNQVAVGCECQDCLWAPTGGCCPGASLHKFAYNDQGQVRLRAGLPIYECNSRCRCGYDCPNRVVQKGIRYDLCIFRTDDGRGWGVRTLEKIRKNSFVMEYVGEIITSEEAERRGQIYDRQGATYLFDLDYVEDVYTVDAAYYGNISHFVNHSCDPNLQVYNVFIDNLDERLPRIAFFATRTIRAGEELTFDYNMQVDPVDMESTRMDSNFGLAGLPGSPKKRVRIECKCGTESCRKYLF
# Sequence of G9a (Q96KQ7 whole entry): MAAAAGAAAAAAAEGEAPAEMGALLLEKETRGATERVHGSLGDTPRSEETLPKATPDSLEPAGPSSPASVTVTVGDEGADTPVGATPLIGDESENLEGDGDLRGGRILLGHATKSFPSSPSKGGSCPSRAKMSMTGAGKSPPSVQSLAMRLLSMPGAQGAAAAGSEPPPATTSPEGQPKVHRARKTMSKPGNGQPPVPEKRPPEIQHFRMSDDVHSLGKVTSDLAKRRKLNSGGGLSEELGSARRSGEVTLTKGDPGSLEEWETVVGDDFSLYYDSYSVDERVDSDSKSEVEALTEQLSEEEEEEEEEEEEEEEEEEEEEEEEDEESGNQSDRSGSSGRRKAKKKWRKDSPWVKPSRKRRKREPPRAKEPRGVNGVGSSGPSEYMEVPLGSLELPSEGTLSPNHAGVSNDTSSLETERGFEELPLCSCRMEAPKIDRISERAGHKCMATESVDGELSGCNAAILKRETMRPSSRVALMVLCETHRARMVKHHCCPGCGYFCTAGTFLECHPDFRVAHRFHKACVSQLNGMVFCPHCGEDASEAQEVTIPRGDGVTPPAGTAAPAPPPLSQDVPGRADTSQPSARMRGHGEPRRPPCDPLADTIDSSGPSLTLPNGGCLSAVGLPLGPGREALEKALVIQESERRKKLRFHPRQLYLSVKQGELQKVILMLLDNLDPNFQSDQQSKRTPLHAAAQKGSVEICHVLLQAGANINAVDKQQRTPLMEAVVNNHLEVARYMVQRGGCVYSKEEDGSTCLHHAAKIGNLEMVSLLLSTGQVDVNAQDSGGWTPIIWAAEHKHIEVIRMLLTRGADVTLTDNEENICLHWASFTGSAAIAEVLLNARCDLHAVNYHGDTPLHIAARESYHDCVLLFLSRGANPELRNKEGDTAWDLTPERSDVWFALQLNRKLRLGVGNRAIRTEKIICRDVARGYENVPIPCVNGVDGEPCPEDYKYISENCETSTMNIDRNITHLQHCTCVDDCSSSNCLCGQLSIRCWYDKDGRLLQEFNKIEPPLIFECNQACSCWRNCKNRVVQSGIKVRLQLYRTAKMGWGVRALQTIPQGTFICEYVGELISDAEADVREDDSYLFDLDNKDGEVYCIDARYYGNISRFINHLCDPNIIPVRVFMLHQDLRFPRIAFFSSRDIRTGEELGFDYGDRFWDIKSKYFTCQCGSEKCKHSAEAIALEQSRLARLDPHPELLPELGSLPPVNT
compound,measurement,setting,value
"CN1C(=O)[C@@]23C[C@](C)(C#N)[C@H](c4ccc5c(c4)OCO5)N2C(=O)[C@]1(C)SS3 (racemic) [ETP69, Rac-(3S,6S,7S,8aS)-6-(Benzo[d][1,3]dioxol-5-yl)-2,3,7-trimethyl-1,4-dioxohexahydro-6H-3,8a-epidithiopyrrolo[1,2-a]pyrazine-7-carbonitrile]",viability inhibition,[1],viability inhibition
same,viability inhibition,[2],viability inhibition
same,inhibition of HMT G9a,G9a,selectively inhibits; also recorded: specific inhibition
same,inhibition of HMT SUV39H1,SUV39H1,selectively inhibits; also recorded: specific inhibition
same,induction of p16 tumor suppressor,p16 tumor suppressor,induces
same,apoptosis,[3],induces apoptosis
same,toxicity symptoms,SKOV3 xenografts,no observable toxicity symptoms
same,tumor volume,SKOV3 xenografts,decreased
same,tumor weight,SKOV3 xenografts,decreased
same,IC50,[4],13.8 nM
same,killing of cells,"[5]; BxPC3, 100 nM to 1000 nM",significant killing
same,IC50,"[5]; Homo sapiens, BXPC-3, BxPC3, 48 h",210 nM
same,IC50,[6],824 nM
same,IC50,"[7]; Homo sapiens, SU.86.86, 48 h",86 nM
same,killing of cells,"[7]; SU86.86, 100 nM to 1000 nM",significant killing
same,senescence-associated beta-galactosidase activity,[8],increased senescence-associated beta-galactosidase activity
same,toxicity,[9],no significant toxicity
